In ChEMBL document CHEMBL1201862, “PubChem BioAssay data set” (2004):
Calls of active or inactive are those of the source.

Legend:
[1] = Luminescence Cell-Based Dose Retest to Confirm Inhibitors of Cancer Stem Cells. [Related pubchem assays (depositor defined):AID2717, AID2721]; type: functional; settings: Homo sapiens
[2] = cytotoxicity in HMLE control line with eGFP shRNA, dose response, counter-screen for HMLE_sh_ECad selective toxicity project, cell-based, HMLE_sh_eGFP, luminescence (AID 463074); type: functional, Homo sapiens;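 note: HMLE human mammary epithelial cells expressing control shRNA against eGFP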
[3] = biological target: Dual specificity protein phosphatase 6 (Rattus norvegicus, UniProt Q64346); type: functional;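 note: confirmatory in vitro dose-response testing of MKP-3 inhibition; recombinant His-tagged MKP-3 made in E. coli BL21 with OMFP substrate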
[4] = biological target: Dual specificity protein phosphatase 3 (Homo sapiens, UniProt P51452); assay: SAR VHR1 Fluorescent Assay for In Vitro dose response studies Set 2. [Related pubchem assays (depositor defined):AID1654, AID1661, AID1878]; type: functional
[5] = control 3'UTR Renilla luciferase suppression, dose response, counter-screen for Shn3 inhibitor project, cell-based, Clone20-Shn3RL, cherry-picked (AID 624133); type: functional
[6] = cytotoxicity in OVCAR4 cells, dose response, cytotoxicity control for PAX8 inhibitor project, cell-based, plate reader, dry powder, SA11 (AID 743150); type: functional; settings: OVCAR-4
INS1 = assay: beta cell apoptosis inhibitors, cytokine rescue, dose response, luminescence, retest (AID 449756); type: functional, cell-based; settings: Rattus norvegicus;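 note: cell death triggered by IL-1 beta plus TNF-alpha plus IFN-gamma mixture; protective hits raise ATP signal compared with cytokine alone wells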
Streptococcus = assay: Group A Streptococcus viability loss, dose response, counter-screen for streptokinase expression inhibitor project, luminescence, BacTiterGlo (AID 1915); type: functional, organism-based;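 note: potency for reduction of bacterial viability or growth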
[7] = cytotoxicity in MIN6 insulinoma cells, dose response, cytotoxicity control, cell-based, mouse insulinoma (AID 2122); type: functional;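 note: confirmatory high-throughput counterscreen run to flag cytotoxic compounds; mouse MIN-6 beta cells carrying an insulin promoter eGFP reporter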
cells [8] = type: functional, cell-based
[9] = cytotoxicity in COV362 ovarian cancer cells, dose response, cytotoxicity control for PAX8 inhibitor project, cell-based, plate reader, dry powder, SA12 (AID 743144); type: functional
[10] = NIH:OVCAR-3 ovarian cancer cell cytotoxicity, dose response, PAX8 inhibitor project, plate reader, dry powder samples (AID 743044); type: functional, cell-based
Paired box protein Pax-8 = Paired box protein Pax-8 (Homo sapiens, UniProt Q06710); assay: inhibitors of PAX8-driven TPO luciferase reporter, dose response, RMG-I cells, cherry-pick (AID 687027); type: functional, cell-based;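 note: luciferase reporter driven by Pax8 target thyroperoxidase promoter measured by SteadyGlo luminescence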
cells [11] = type: functional, cell-based; remark: listed apart in the source
Escherichia coli = assay: microbe, parasite or virus in culture
[12] = cytotoxicity toward NIH3T3 fibroblasts, dose response, counter-screen, cell-based, ATP luminescence, mouse fibroblasts (AID 2010); type: functional;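 note: cells exposed to compound for about 90 hours before reading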
[13] = cytotoxicity in COV434 cells, dose response, cytotoxicity control for PAX8 inhibitor project, cell-based, plate reader, dry powder, SA7 (AID 743145); type: functional
[14] = PAX5 activity inhibitors, dose response, selectivity assay for PAX8 inhibitor project, cell-based, plate reader, dry powder samples (AID 743047); type: functional;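 note: HEK293 cells carrying a Pax5 driven CD19 promoter luciferase reporter; potency of inhibitors that lower reporter luminescence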
[15] = inhibitors of intracellular T. cruzi replication, confirmation, NIH3T3 host cells, beta-gal luminescence (AID 2044); type: functional, cell-based;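 note: intracellular parasites grown in NIH/3T3 mouse fibroblasts as host cells; luminescent beta-galactosidase reporter signal from transgenic T. cruzi replicating inside host cells; inhibitors lower the luminescence signal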
[16] = IOSE-T80 ovarian epithelial cell cytotoxicity, dose response, cytotoxicity control for PAX8 inhibitor project, plate reader, dry powder samples (AID 743045); type: functional, cell-based
[17] = cytotoxicity in OV-90 ovarian cancer cells, dose response, PAX8 inhibitor project, cell-based, plate reader, dry powder, SA8 (AID 743149); type: functional
[18] = biological target: T1, Probable nicotinate-nucleotide adenylyltransferase (Staphylococcus aureus (strain N315), UniProt P65502); type: functional, Staphylococcus aureus subsp. aureus N315;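 for IC50 Mean: confirmatory dose-response retesting of NadD inhibitor hits first found in an ultra-high-throughput screen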
[19] = biological target: T2, Type-1 angiotensin II receptor (Homo sapiens, UniProt P30556); assay: AT1 receptor agonists, dose response, selectivity assay for APJ receptor agonist project, cell-based, uHTS hits (AID 488865); type: functional;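 note: beta-arrestin recruitment to AT1 measured by enzyme fragment complementation luminescence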
T2 sequence (P30556 whole entry): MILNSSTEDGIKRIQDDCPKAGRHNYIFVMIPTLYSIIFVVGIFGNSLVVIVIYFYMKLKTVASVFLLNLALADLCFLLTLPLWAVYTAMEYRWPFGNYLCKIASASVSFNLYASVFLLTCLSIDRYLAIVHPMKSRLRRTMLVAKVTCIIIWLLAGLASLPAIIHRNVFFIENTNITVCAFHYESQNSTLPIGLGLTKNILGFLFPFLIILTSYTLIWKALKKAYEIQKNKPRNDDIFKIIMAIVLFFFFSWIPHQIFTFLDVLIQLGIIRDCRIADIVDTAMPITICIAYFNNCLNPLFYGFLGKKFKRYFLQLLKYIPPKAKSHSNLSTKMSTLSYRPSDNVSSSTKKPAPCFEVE

[20] = PAX2 cell-based inhibition, dose response, selectivity assay for PAX8 inhibitor project, plate reader, dry powder samples (AID 743048); type: functional;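 note: HEK293 cells carrying a WT1 promoter luciferase reporter driven by expressed Pax2; potency is for inhibition of Pax2 driven reporter signal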
[21] = A2780 ovarian cancer cell cytotoxicity, dose response, cytotoxicity control, plate reader, dry powder samples (AID 743046); type: functional, cell-based
[22] = HepG2 cell cytotoxicity, dose response, cytotoxicity control for Shn3 inhibitor project, CellTiter-Glo, cherry-picked (AID 624134); type: functional, cell-based
[23] = test system: Streptococcus sp. 'group A'; assay: growth inhibition of control SK(-) GAS strain, dose response, counter-screen for streptokinase expression inhibitor project, luminescence, kanamycin, BacTiterGlo, confirmation (AID 1900); type: functional, organism-based
[24] = IGROV1 ovarian cancer cell cytotoxicity, dose response, PAX8 inhibitor project, plate reader, dry powder samples (AID 743043); type: functional, cell-based; settings: IGROV-1
[25] = insulin promoter down-regulators in MIN6 cells, imaging, high-content screening, mouse beta cells (AID 1628); type: functional
[26] = Shn3 3'UTR reporter inhibitors, dose response, cell-based, Clone20 osteoblasts, firefly luciferase, cherry-picked (AID 624132); type: functional;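 note: firefly luciferase luminescence from reporter carrying the Shn3 3'UTR in osteoblasts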
[27] = cytotoxicity dependent on PAX8, dose response, cell-based, plate reader, dry powder (AID 743049); type: functional
[28] = biological target: T1, Probable nicotinate-nucleotide adenylyltransferase; type: functional, Staphylococcus aureus subsp. aureus N315; settings: read-out: IC50_Mean
Streptokinase A = biological target: T3, Streptokinase A (Streptococcus pyogenes serotype M1, UniProt P10520); assay: S. pyogenes streptokinase expression inhibitors, potency, dose response, plasminogen activation absorbance, OD405 (AID 1914); type: functional, Streptococcus pyogenes M1 GAS;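 note: secreted streptokinase activity via plasminogen activation per viability signal from cell pellet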
T3 sequence (P10520 whole entry): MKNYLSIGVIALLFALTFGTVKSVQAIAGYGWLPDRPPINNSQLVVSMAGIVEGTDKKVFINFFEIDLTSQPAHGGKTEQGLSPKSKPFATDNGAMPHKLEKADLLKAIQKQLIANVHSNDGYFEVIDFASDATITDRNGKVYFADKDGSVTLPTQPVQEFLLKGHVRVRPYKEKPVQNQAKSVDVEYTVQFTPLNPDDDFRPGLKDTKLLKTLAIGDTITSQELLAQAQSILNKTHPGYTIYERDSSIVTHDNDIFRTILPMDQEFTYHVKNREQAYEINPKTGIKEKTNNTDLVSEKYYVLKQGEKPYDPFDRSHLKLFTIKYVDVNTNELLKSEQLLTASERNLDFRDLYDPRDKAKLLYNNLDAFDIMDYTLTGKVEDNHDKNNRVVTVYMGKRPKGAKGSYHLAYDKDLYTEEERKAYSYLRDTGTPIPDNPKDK

Cytochrome P450 3A4 = Cytochrome P450 3A4 (Homo sapiens, UniProt P08684);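 note: CYP3A4 tested as one member of a cytochrome P450 panel screen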
Cytochrome P450 3A4, sequence (P08684 whole entry): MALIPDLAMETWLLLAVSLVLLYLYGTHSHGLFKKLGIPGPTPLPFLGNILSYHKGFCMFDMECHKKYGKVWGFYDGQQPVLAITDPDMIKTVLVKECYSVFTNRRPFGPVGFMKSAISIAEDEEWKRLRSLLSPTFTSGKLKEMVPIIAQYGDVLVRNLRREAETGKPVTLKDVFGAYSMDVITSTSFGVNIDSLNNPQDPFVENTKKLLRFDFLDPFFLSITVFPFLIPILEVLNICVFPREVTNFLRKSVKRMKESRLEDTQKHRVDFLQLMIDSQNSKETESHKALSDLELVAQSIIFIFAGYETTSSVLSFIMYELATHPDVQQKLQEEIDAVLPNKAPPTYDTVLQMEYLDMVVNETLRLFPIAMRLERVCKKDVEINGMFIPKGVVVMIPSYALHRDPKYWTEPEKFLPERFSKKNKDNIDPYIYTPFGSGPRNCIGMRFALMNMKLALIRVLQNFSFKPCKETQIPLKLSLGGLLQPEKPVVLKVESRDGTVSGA

T1 sequence (P65502 whole entry, the tested form may be a part): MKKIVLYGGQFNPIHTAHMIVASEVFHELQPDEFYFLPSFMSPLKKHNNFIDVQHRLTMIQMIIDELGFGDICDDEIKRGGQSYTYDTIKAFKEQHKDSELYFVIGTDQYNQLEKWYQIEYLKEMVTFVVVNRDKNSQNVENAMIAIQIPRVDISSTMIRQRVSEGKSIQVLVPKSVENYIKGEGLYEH
Dual specificity protein phosphatase 3, sequence (P51452 whole entry): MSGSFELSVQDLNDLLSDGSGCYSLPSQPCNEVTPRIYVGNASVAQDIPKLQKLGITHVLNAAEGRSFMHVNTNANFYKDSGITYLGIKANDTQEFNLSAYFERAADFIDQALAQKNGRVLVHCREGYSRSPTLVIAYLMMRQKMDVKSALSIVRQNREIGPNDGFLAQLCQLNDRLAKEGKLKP
Dual specificity protein phosphatase 6, sequence (Q64346 whole entry): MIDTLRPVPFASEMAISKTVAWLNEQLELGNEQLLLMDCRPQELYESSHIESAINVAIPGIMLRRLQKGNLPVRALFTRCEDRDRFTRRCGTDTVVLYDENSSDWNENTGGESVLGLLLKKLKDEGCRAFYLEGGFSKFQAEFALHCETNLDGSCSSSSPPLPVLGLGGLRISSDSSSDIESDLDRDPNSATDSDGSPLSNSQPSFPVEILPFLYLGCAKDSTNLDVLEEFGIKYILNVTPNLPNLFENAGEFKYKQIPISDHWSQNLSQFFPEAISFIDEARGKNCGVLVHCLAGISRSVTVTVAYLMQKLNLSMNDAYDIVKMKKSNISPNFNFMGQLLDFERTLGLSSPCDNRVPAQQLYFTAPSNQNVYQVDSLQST
Paired box protein Pax-8, sequence (Q06710 whole entry): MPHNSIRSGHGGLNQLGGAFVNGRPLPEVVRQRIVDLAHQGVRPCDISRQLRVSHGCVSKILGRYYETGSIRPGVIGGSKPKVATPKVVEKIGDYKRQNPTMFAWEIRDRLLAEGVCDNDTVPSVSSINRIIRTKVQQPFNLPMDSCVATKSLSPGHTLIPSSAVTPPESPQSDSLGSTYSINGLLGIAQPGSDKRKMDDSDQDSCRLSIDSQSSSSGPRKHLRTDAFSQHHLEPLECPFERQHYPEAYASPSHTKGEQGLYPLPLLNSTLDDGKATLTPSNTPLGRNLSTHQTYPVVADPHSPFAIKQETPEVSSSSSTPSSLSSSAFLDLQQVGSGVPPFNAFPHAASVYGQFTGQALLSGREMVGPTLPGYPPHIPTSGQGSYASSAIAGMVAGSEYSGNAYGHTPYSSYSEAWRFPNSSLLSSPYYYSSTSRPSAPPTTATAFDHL

In the case of `COc1cc2c(cc1NC(=O)c1cccc([N+](=O)[O-])c1C)oc1ccccc12`, the AC50 [1] is reported as 2.65 µM (active) and the AC50 [2] is reported as 41.4 µM (active).
For `NS(=O)(=O)c1cc(C(=O)NC2CCSc3ccccc32)c(Cl)cc1Cl` (stereo not given), the IC50 [3] was > 100 µM (inactive) and the IC50 [4] was > 100 µM (inactive).
With `Cc1ccc2nc(NNC(=O)c3ccc(S(=O)(=O)N4CCc5ccccc5C4)cc3)sc2c1` the AC50 [5] was 1.78 µM (active), the AC50 [6] was 31.1 µM (active) and the AC50 (INS1) was 2.17 µM (active). For the same molecule, the EC50 (Streptococcus) was > 150 µM (not active), the IC50 [7] was 2.7 µM (active) and the EC50 (cells [8]) was > 350 µM (not active). For the same molecule, the AC50 [9] was 18.3 µM (active), the AC50 [10] was 31.1 µM (active) and the AC50 (Paired box protein Pax-8) was 3.01 µM (active). For the same molecule, the EC50 (cells [11]) was 13.5 µM (active), the AC50 (Escherichia coli) was 39 µM (active) and the EC50 [12] was 3.65 µM (active). The AC50 [13] was 13.7 µM (active), the AC50 [14] was 5.81 µM (active) and the EC50 [15] was 0.904 µM (active). The AC50 [16] was 19.5 µM (active), the AC50 [17] was 9.99 µM (active) and the IC50 [18] was 9.9 µM (active). For the same molecule, the EC50 [19] was > 100 µM (inactive), the AC50 [20] was 6.18 µM (active) and the AC50 [21] was 14.8 µM (active). The AC50 [22] was 2.88 µM (active), the EC50 [23] was 0.499 µM (active) and the AC50 [24] was 8.28 µM (active). For the same molecule, the IC50 [25] was 3.03 µM (active), the AC50 [26] was 1.62 µM (active) and the AC50 [1] was 3.74 µM (active). The AC50 [27] was 9.32 µM (active), the IC50 [28] was 52.7 µM (active) and the EC50 (Streptokinase A) was > 150 µM (not active).
For `CC(=O)Nc1ccccc1C(=O)OCc1ccc(C(=O)c2ccccc2)cc1`, the AC50 (Cytochrome P450 3A4) was “inconclusive”.
